Assay results published in PMC8482815, “Targeting Host Glycolysis as a Strategy for Antimalarial Development” (Frontiers in Cellular and Infection Microbiology, 2021).
“And” between values parts separate entries of the source, which are not always exact repeats. Equal entries are not always repeated.

Test system: human erythrocytes
Assay: Untargeted metabolomics and 13C-glucose tracing of enolase inhibitor treated erythrocytes
Format: cell-based
Conditions: 6h
Method: Freshly collected erythrocytes were washed, resuspended to 10% hematocrit in buffer [25mM HEPES (pH 7.4), 120mM NaCl, 5.4mM KCl, 1.8mM CaCl2, and 1mM NaH2PO4], incubated for 1 hour at 37°C, then centrifuged at 2000xg for 5 minutes at 4°C, resuspended in fresh wash buffer to 30-40% hematocrit, and split into 210µL aliquots of packed erythrocytes. […] All samples were incubated at 37°C shaking at 500 RPM. Triplicate samples of supernatants and packed erythrocytes were collected at 0, 0.5, 1, and 6-hour intervals and snap-frozen in liquid N2.
RBC and media samples were extracted at 1:10 and 1:20 dilutions, respectively, in 5:3:2 MeOH : MeCN:H2O v/v/v, and supernatants analyzed on a Thermo Vanquish UHPLC coupled to a Thermo Q Exactive mass spectrometer, as extensively described ([Nemkov et al., 2015]; [Nemkov et al., 2017]). The extraction buffer was supplemented with 40uM 3-^13C lactate to allow absolute quantification of lactate isotopologues, including lactate generated via glycolysis ([1,2,3-^13C3] enriched) vs. the pentose phosphate pathway ([2,3-^13C2] enriched), as described ([Reisz et al., 2016]). Metabolite assignments, peak area integration and isotopologues distributions were determined using Maven (Princeton University) ([Nemkov et al., 2015]; [Nemkov et al., 2017]).
Data were auto-scaled and normalized to zero-hour time points. Metabolites were removed from the dataset if greater than 50% of the samples contained missing values or the relative standard deviation among replicates exceeded 25%. Additionally, data was filtered using the interquartile range to reduce near-constant values from the experiment by 5%.
A principal component analysis of preprocessed data was plotted with the 95% confidence interval minimum volume enclosing ellipsoid for each respective group (MetaboAnalyst, cluster, plotly). A two-way repeated measures analysis of variance (ANOVA) was performed with multiple comparisons corrected for using a false discovery rate p-value cutoff of 0.05. Metabolite-Pathway analysis was performed using the R package of MetaboAnalyst, as previously described ([Xia and Wishart, 2010]). Metabolite-Protein nodal analysis was performed using omicsnet.ca and as previously described ([Zhou and Xia, 2018]).

[1] = treated erythrocytes, one value per replicate sample, polarity +
[2] = treated erythrocytes, one value per replicate sample, polarity -
[3] = treated erythrocytes, replicate samples

CC(C)(C)C(=O)OCOP(=O)(OCOC(=O)C(C)(C)C)C1CC(O)N(O)C1=O (stereo not shown) [POMSF]
AMP level (metabolomics signal) (replicate samples): 5.02E+05 and 4.09E+05 and 5.85E+05
ATP level (metabolomics signal) (replicate samples): 1.58E+04 and 9.84E+04 and 9.63E+04
Adenine level (metabolomics signal) (replicate samples): 7.75E+04 and 1.23E+05 and 1.12E+05
Cytosine level (metabolomics signal) (replicate samples): 8.05E+04 and 4.16E+04 and 5.19E+04
L-alanine level (metabolomics signal) (replicate samples): 8.35E+06 and 9.19E+06 and 8.31E+06
L-arginine level (metabolomics signal) (replicate samples): 2.95E+06 and 0.00E+00 and 2.67E+06
L-asparagine level (metabolomics signal) (replicate samples): 5.77E+06 and 5.60E+06 and 5.22E+06
L-aspartate level (metabolomics signal) (replicate samples): 1.31E+07 and 1.25E+07 and 1.18E+07
L-cysteine level (metabolomics signal) (replicate samples): 3.97E+05 and 1.14E+05 and 2.20E+05
L-glutamate level (metabolomics signal) (replicate samples): 7.50E+06 and 6.15E+06 and 6.74E+06
L-glutamine level (metabolomics signal) (replicate samples): 6.26E+07 and 5.76E+07 and 5.48E+07
L-histidine level (metabolomics signal) (replicate samples): 1.46E+06 and 1.38E+06 and 1.44E+06
L-isoleucine level (metabolomics signal) (replicate samples): 1.17E+07 and 1.31E+07 and 1.49E+07
L-leucine level (metabolomics signal) (replicate samples): 1.27E+08 and 1.58E+08 and 2.15E+08
L-lysine level (metabolomics signal) (replicate samples): 1.43E+06 and 1.33E+06 and 1.52E+06
L-methionine level (metabolomics signal) (replicate samples): 1.27E+07 and 1.48E+07 and 1.83E+07
L-phenylalanine level (metabolomics signal) (replicate samples): 6.89E+06 and 7.47E+06 and 8.39E+06
L-proline level (metabolomics signal) (replicate samples): 7.25E+07 and 6.63E+07 and 6.78E+07
L-serine level (metabolomics signal) (replicate samples): 4.64E+06 and 4.68E+06 and 4.28E+06
L-threonine level (metabolomics signal) (replicate samples): 6.95E+06 and 7.99E+06 and 7.08E+06
L-tryptophan level (metabolomics signal) (replicate samples): 1.43E+06 and 1.21E+06 and 1.71E+06
L-tyrosine level (metabolomics signal) (replicate samples): 1.74E+07 and 2.17E+07 and 2.50E+07
L-valine level (metabolomics signal) (replicate samples): 1.73E+08 (2×) and 1.89E+08
dCMP level (metabolomics signal) (replicate samples): 0.00E+00 and 1.19E+04 and 1.51E+04
dTMP level (metabolomics signal) (replicate samples): 2.61E+04 and 1.28E+06 and 7.09E+05
glycine level (metabolomics signal) (replicate samples): 1.74E+06 and 1.71E+06 and 1.54E+06
N-Acyl-D-aspartate (C06380) metabolite signal [1]: 6.19E+04 and 7.22E+04 and 7.18E+04
Poly-gamma-D-glutamate (C05723) metabolite signal [1]: 4.28E+07 and 3.89E+07 and 3.91E+07
D-Ribitol 5-phosphate (C01068) metabolite signal [2]: 0.00E+00 and 1.62E+04 and 1.65E+04
D-glucono-1,5-lactone (C00198) metabolite signal [2]: 1.21E+04 and 2.10E+05 and 2.85E+05
L-Noradrenaline (C00547) metabolite signal [2]: 1.67E+04 and 1.81E+04 and 3.13E+04
Oxalosuccinate (C05379) metabolite signal [2]: 3.74E+04 and 9.19E+04 and 1.02E+05
Pyridoxamine (C00534) metabolite signal [2]: 1.97E+04 and 7.81E+03 and 6.44E+03
Thioredoxin disulfide (C00343) metabolite signal [2]: 0.00E+00 and 8.04E+04 and 2.51E+04
1-4-beta-D-Xylan (metabolite signal) [3]: 2.44E+04 and 1.72E+05 and 1.77E+05
2-Hydroxyglutarate/Citramalate (C02630) metabolite signal [3]: 8.76E+03 and 5.83E+04 and 8.08E+04
5-6-Dihydrothymine (C00906) metabolite signal [3]: 7.42E+04 and 3.03E+05 and 2.79E+05
5-10-Methenyltetrahydrofolate (metabolite signal) [3]: 1.08E+05 and 1.27E+05 (2×)
5-Hydroxyisourate (C11821) metabolite signal [3]: 4.60E+06 and 7.03E+06 and 4.57E+06
5-L-Glutamyl-taurine (metabolite signal) [3]: 1.69E+05 and 1.70E+05 and 1.66E+05
5-Oxoproline (metabolite signal) [3]: 7.65E+04 and 8.27E+05 and 8.67E+05
(S)(+)-Allantoin (C02350) metabolite signal [3]: 1.76E+03 and 8.43E+03 and 0.00E+00
Allantoate (C00499) metabolite signal [3]: 5.45E+05 and 3.06E+05 and 4.74E+05
Ascorbate (metabolite signal) [3]: 3.17E+02 and 8.49E+04 and 7.10E+04
CMP-N-acetylneuraminate (metabolite signal) [3]: 0.00E+00 and 1.60E+04 and 3.30E+04
Carnosine (metabolite signal) [3]: 1.68E+05 and 2.26E+05 and 1.66E+05
Citrate (C00158) metabolite signal [3]: 1.56E+03 and 1.77E+04 and 2.42E+04
Creatine (metabolite signal) [3]: 1.60E+08 and 1.66E+08 and 1.57E+08
Creatinine (metabolite signal) [3]: 2.21E+06 and 2.25E+06 and 2.28E+06
Cys-Gly (metabolite signal) [3]: 7.06E+05 and 5.27E+05 and 4.56E+05
D-Glucosamine (metabolite signal) [3]: 2.84E+05 and 2.82E+05 and 2.01E+05
D-Glucose (C00031) metabolite signal [3]: 3.39E+04 and 4.32E+06 and 3.64E+06
D-Ribose (C00121) metabolite signal [3]: 1.37E+04 and 1.43E+05 and 1.11E+05
Dehydroascorbate (metabolite signal) [3]: 0.00E+00 and 3.73E+04 and 1.82E+04
Dihydrofolate (metabolite signal) [3]: 1.85E+06 and 9.70E+05 and 1.18E+06
Dimethylglycine (metabolite signal) [3]: 7.46E+05 and 8.20E+05 and 5.98E+05
Diphosphate (C00013) metabolite signal [3]: 0.00E+00 and 2.99E+04 and 2.16E+04
Fumarate (C00122) metabolite signal [3]: 3.34E+03 and 7.81E+04 and 1.06E+05
Glutathione (C00051) metabolite signal [3]: 4.14E+07 and 3.33E+07 and 3.37E+07
Glutathione disulfide (metabolite signal) [3]: 0.00E+00 and 1.62E+05 and 3.64E+05
Hypoxanthine (C00262) metabolite signal [3]: 7.62E+03 and 4.26E+03 and 3.54E+03
IMP (C00130) metabolite signal [3]: 1.27E+04 and 8.26E+04 and 5.76E+04
Inosine (C00294) metabolite signal [3]: 1.21E+03 and 4.59E+04 and 5.50E+04
L-Citrulline (metabolite signal) [3]: 2.43E+06 and 3.35E+06 and 2.92E+06
L-Homoserine (metabolite signal) [3]: 1.60E+04 and 2.75E+05 and 2.50E+05
Lactate (C01432) metabolite signal [3]: 9.68E+05 and 1.69E+07 and 1.76E+07
Malate (C00149) metabolite signal [3]: 3.14E+03 and 1.07E+05 and 1.56E+05
Mannitol (C00392) metabolite signal [3]: 6.48E+03 and 1.86E+05 and 1.78E+05
N-Acetylneuraminate (metabolite signal) [3]: 0.00E+00 and 1.33E+04 and 1.50E+04
N-Glycoloyl-neuraminate (metabolite signal) [3]: 0.00E+00 and 1.02E+05 and 7.37E+04
NAD+ (C00003) metabolite signal [3]: 5.65E+04 and 4.00E+04 and 9.30E+04
Nicotinamide (C00153) metabolite signal [3]: 2.54E+07 and 3.18E+07 and 2.67E+07
Ornithine (metabolite signal) [3]: 1.63E+06 and 1.68E+06 and 1.77E+06
Oxaloacetate (C00036) metabolite signal [3]: 1.48E+03 and 3.44E+04 and 3.60E+04
Phosphoserine (metabolite signal) [3]: 5.41E+04 and 5.91E+04 and 2.74E+04
Putrescine (metabolite signal) [3]: 3.78E+04 and 4.55E+04 and 4.46E+04
Pyridoxal (C00250) metabolite signal [3]: 3.76E+04 and 4.39E+04 and 5.36E+04
Pyruvate (C00022) metabolite signal [3]: 8.68E+04 and 2.04E+06 and 2.17E+06
S-Glutathionyl-L-cysteine (metabolite signal) [3]: 0.00E+00 and 1.18E+05 and 1.30E+05
Sedoheptulose 1-phosphate (C06222) metabolite signal [3]: 0.00E+00 and 1.66E+04 and 1.92E+04
Spermidine (metabolite signal) [3]: 6.37E+06 and 6.43E+06 and 6.27E+06
Spermine (metabolite signal) [3]: 8.12E+06 and 8.01E+06 and 7.75E+06
Succinate (C00042) metabolite signal [3]: 1.40E+04 and 6.55E+04 and 4.55E+04
Thymidine (C00214) metabolite signal [3]: 4.03E+04 and 7.72E+03 and 7.98E+03
UDP (C00015) metabolite signal [3]: 0.00E+00 and 1.32E+05 and 7.27E+04
UDP-N-acetyl-D-glucosamine (metabolite signal) [3]: 0.00E+00 and 6.00E+03 and 1.01E+04
UDP-glucose (C00029) metabolite signal [3]: 0.00E+00 and 8.80E+03 and 1.03E+04
Urate (C00366) metabolite signal [3]: 1.39E+04 and 2.30E+04 and 2.01E+04
Xanthine (C00385) metabolite signal [3]: 8.29E+04 and 9.81E+04 and 9.24E+04
alpha-D-Glucosamine 1-phosphate (metabolite signal) [3]: 8.54E+05 and 1.67E+06 and 1.26E+06
alpha-D-Ribose 1-phosphate (C00620) metabolite signal [3]: 0.00E+00 and 2.89E+04 and 3.75E+04
gamma-Glutamyl-gamma-aminobutyrate (metabolite signal) [3]: 5.89E+04 and 6.64E+04 and 6.00E+04
gamma-L-Glutamyl-D-alanine (metabolite signal) [3]: 3.86E+02 and 3.06E+04 and 3.37E+04
gamma-L-Glutamyl-L-cysteine (metabolite signal) [3]: 4.08E+03 and 2.68E+04 and 3.24E+04
